Read-outs that look alike come from different tables or passages of the source.
What was measured:
[1] = test system: A. baumannii 14B00100 (Acinetobacter sp., BCRC number 14B0100)
In short: (§1)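 Salt and pH tolerance was assessed by determining MICs in LYM medium containing 50–300 mM NaCl, 0.5–2.5 mM MgCl2, or at pH 4.5–6.5, alongside MH broth. The inoculum was 5 × 10^5 CFU/mL.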

[2] = test system: A. baumannii 14B0091 (Acinetobacter sp., BCRC number 14B0091)
In short: as §1

S. aureus ATCC 33591 = test system: S. aureus ATCC 33591
In short: as §1

S. aureus ATCC 33593 = test system: S. aureus ATCC 33593
In short: as §1

S. aureus ATCC 25923 = test system: S. aureus ATCC 25923
In short: as §1

[3] = test system: Pseudomonas aeruginosa Migula (ATCC 27853)
In short: as §1

[4] = test system: Escherichia coli (ATCC 25922)
In short: as §1

[5] = LYM broth, 0 mM NaCl, 16 h, 37 °C
[6] = LYM broth, 50 mM NaCl, 16 h, 37 °C
[7] = LYM broth, 100 mM NaCl, 16 h, 37 °C
[8] = LYM broth, 200 mM (NaCl), 16 h, 37 °C
[9] = LYM broth, 300 mM (NaCl), 16 h, 37 °C
[10] = MH broth, 5 × 10^5 CFU/mL, 16 h, 37 °C, repeated three times

Measured: MIC

Ac-AKKKKWRKWLKWL-NH2 [Peptide W5K10]
6.25 µg/mL: S. aureus ATCC 33591; LYM broth, 2.5 mM MgCl2 | S. aureus ATCC 33591; [6] | S. aureus ATCC 33591; [7] | S. aureus ATCC 33591; LYM broth, pH 4.5 | S. aureus ATCC 33593; LYM broth, 2.5 mM MgCl2 | S. aureus ATCC 33593; [6] | S. aureus ATCC 33593; [7] | S. aureus ATCC 33593; LYM broth, pH 4.5 | S. aureus ATCC 25923; [7] | S. aureus ATCC 25923; [10] | [3]; LYM broth, 2.5 mM MgCl2 | [3]; [6] | [3]; [7] | [3]; [10] | [4]; LYM broth, 1.5 mM MgCl2 | [4]; LYM broth, 2.5 mM MgCl2 | [4]; [10]
12.5 µg/mL: S. aureus ATCC 33591; [8] | S. aureus ATCC 33591; [10] | S. aureus ATCC 33593; [8] | S. aureus ATCC 33593; [10] | S. aureus ATCC 25923; [8] | [3]; [8] | [4]; [7] | [4]; [8]
1.56 µg/mL: [1]; [5] | [1]; LYM broth, 0.5 mM MgCl2 | [1]; LYM broth, 1.5 mM MgCl2 | [1]; [6] | [1]; [7] | [1]; [8] | [1]; LYM broth, pH 4.5 | [1]; LYM broth, pH 5.5 | [1]; LYM broth, pH 6.5 | [2]; [5] | [2]; LYM broth, 0.5 mM MgCl2 | [2]; LYM broth, 1.5 mM MgCl2 | [2]; [6] | [2]; [7] | [2]; [8] | [2]; LYM broth, pH 5.5 | [2]; LYM broth, pH 6.5 | [2]; [10] | S. aureus ATCC 25923; LYM broth, 0.5 mM MgCl2 | [3]; LYM broth, pH 6.5 | [4]; LYM broth, pH 5.5 | [4]; LYM broth, pH 6.5
3.13 µg/mL: [1]; LYM broth, 2.5 mM MgCl2 | [1]; [9] | [1]; [10] | [2]; LYM broth, 2.5 mM MgCl2 | [2]; [9] | [2]; LYM broth, pH 4.5 | S. aureus ATCC 33591; [5] | S. aureus ATCC 33591; LYM broth, 0.5 mM MgCl2 | S. aureus ATCC 33591; LYM broth, 1.5 mM MgCl2 | S. aureus ATCC 33591; LYM broth, pH 5.5 | S. aureus ATCC 33591; LYM broth, pH 6.5 | S. aureus ATCC 33593; [5] | S. aureus ATCC 33593; LYM broth, 0.5 mM MgCl2 | S. aureus ATCC 33593; LYM broth, 1.5 mM MgCl2 | S. aureus ATCC 33593; LYM broth, pH 5.5 | S. aureus ATCC 33593; LYM broth, pH 6.5 | S. aureus ATCC 25923; [5] | S. aureus ATCC 25923; LYM broth, 1.5 mM MgCl2 | S. aureus ATCC 25923; LYM broth, 2.5 mM MgCl2 | S. aureus ATCC 25923; [6] | S. aureus ATCC 25923; LYM broth, pH 4.5 | S. aureus ATCC 25923; LYM broth, pH 5.5 | S. aureus ATCC 25923; LYM broth, pH 6.5 | [3]; [5] | [3]; LYM broth, 0.5 mM MgCl2 | [3]; LYM broth, 1.5 mM MgCl2 | [3]; LYM broth, pH 4.5 | [3]; LYM broth, pH 5.5 | [4]; [5] | [4]; LYM broth, 0.5 mM MgCl2 | [4]; [6] | [4]; LYM broth, pH 4.5
25 µg/mL: S. aureus ATCC 33591; [9] | S. aureus ATCC 33593; [9] | S. aureus ATCC 25923; [9] | [3]; [9] | [4]; [9]

— publication PMC12649549, “Sequence Permutation Generated Lysine and Tryptophan-Rich Antimicrobial Peptides with Enhanced Therapeutic Index” (Antibiotics, 2025)
